Target: T1, RORC2 ligand binding domain (6-His-RORC2 LBD) (Homo sapiens, UniProt P51449)
T1 construct: made in house; host or cells: E. coli
T1 sequence (P51449 269-508 limits assumed): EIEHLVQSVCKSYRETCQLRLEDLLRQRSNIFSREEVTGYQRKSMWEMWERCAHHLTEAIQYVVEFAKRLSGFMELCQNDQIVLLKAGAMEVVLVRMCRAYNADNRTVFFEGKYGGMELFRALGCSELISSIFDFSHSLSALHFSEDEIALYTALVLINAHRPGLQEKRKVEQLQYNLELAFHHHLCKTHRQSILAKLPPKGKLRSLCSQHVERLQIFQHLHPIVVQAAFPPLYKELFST
Assay: Co-activator recruitment by TR-FRET (RORC2 FRET)
Type: biochemical
Conditions: 6.3 nM RORC2 LBD, 200 nM SRC1-2 coactivator peptide, 3 hours room temperature
From the text: The activity of compound of the invention can be determined by a co-activator recruitment by TR-FRET (time-resolved fluorescence resonance energy transfer) assay. […] Due to the long lasting fluorescence emission of Europium, the non-specific, short-lived fluorescence is time-resolved (TR) from the fluorescence of interest. Inhibitors of the interaction of receptor and coactivator peptide are detected by a decrease in TR-FRET signal.
Specifically, in one embodiment the aforementioned assay was performed as outlined below. The assay was carried out in black polystyrene, 384-well plates in a total assay volume of 50.5 μL. The assay buffer contained 50 mM TRIS-HCL pH 7.5, 1 mM NaCl, 2 mM MgCl2, 0.5 mg/mL bovine serum albumin, and 5 mM dithiothreitol.

Row | SMILES | IC50
1 | COCCCS(=O)(=O)Nc1ccc2c(c1)c(C1CCN(C(=O)C3CCCC3)CC1)cn2C [Example 74, N-{3-[1-(cyclopentylcarbonyl)piperidin-4-yl]-1-methyl-1H-indol-5-yl}-3-methoxypropane-1-sulfonamide] | 53 nM
2 | CC(C)c1cnc(N2CCC(c3cn(C)c4ccc(NC(=O)c5cccc(C#N)c5)cc34)CC2)nc1 [Example 82, 3-cyano-N-(3-[1-(5-isopropylpyrimidin-2-yl)piperidin-4-yl]-1-methyl-1H-indol-5-yl)benzamide] | 3960 nM
3 | Cn1cc(C2CCN(C(=O)C3CCCC3)CC2)c2cc(NC(=O)N3CCCC(C#N)C3)ccc21 (stereo not drawn) [Example 58, 3-cyano-N-(3-(1-(cyclopentanecarbonyl)piperidin-4-yl)-1-methyl-1H-indol-5-yl)piperidine-1-carboxamide] | 256 nM
4 | Cn1cc(C2CCN(C(=O)C3CCCC3)CC2)c2cc(NS(=O)(=O)c3ccccc3)ccc21 [Example 68, N-{3-[1-(cyclopentylcarbonyl)piperidin-4-yl]-1-methyl-1H-indol-5-yl}benzenesulfonamide] | 6.5 nM
5 | Cn1cc(C2CCN(C(=O)C3CCCC3)CC2)c2cc(NC(=O)N3CC(CC#N)C3)ccc21 [Example 61, 3-(cyanomethyl)-N-{3-[1-(cyclopentylcarbonyl)piperidin-4-yl]-1-methyl-1H-indol-5-yl}azetidine-1-carboxamide] | 335 nM
6 | Cn1cc(C2CCN(C(=O)CCC(F)(F)F)CC2)c2cc(NC(=O)c3cc(C#N)ccn3)ccc21 [Example 30, 4-cyano-N-{1-methyl-3-[1-(4,4,4-trifluorobutanoyl)piperidin-4-yl]-1H-indol-5-yl}pyridine-2-carboxamide] | 14.3 nM
7 | CCCS(=O)(=O)Nc1ccc2c(c1)c(C1CCN(C(=O)C3CCCC3)CC1)cn2C [Example 73, N-{3-[1-(cyclopentylcarbonyl)piperidin-4-yl]-1-methyl-1H-indol-5-yl}propane-1-sulfonamide] | 67.7 nM
8 | Cn1cnc2cc(C(=O)Nc3ccc4[nH]cc(C5CCN(C(=O)C6CCCC6)CC5)c4c3)ccc21 [Example 52, N-{3-[1-(cyclopentylcarbonyl)piperidin-4-yl]-1H-indol-5-yl}-1-methyl-1H-benzimidazole-5-carboxamide] | 1110 nM
9 | Cn1cc(C2CCN(C(=O)CC3CC3)CC2)c2cc(NC(=O)c3cc(C#N)ccn3)ccc21 [Example 33, 4-cyano-N-{3-[1-(cyclopropylacetyl)piperidin-4-yl]-1-methyl-1H-indol-5-yl}pyridine-2-carboxamide] | 7.6 nM
10 | Cn1cc(C2CCN(C(=O)C3CCC(F)(F)C3)CC2)c2cc(NC(=O)c3cc(C#N)ccn3)ccc21 (stereo not drawn) [Example 8, 4-cyano-N-(3-{1-[(3,3-difluorocyclopentyl)carbonyl]piperidin-4-yl}-1-methyl-1H-indol-5-yl)pyridine-2-carboxamide] | 7.3 nM
11 | CC(C)C[C@H](O)C(=O)N1CCC(c2cn(C)c3ccc(NC(=O)c4cccc(C#N)c4)cc23)CC1 [Example 4, 3-cyano-N-(3-(1-((2S)-2-hydroxy-4-methylpentanoyl)piperidin-4-yl)-1-methyl-1H-indol-5-yl)benzamide] | 590 nM
12 | COc1ccc(S(=O)(=O)Nc2ccc3c(c2)c(C2CCN(C(=O)C4CCCC4)CC2)cn3C)cc1 [Example 75] | 14.7 nM
13 | O=C(Nc1ccc2[nH]cc(C3CCN(C(=O)C4CCCC4)CC3)c2c1)c1ccccc1Cl [Example 44, 2-chloro-N-{3-[1-(cyclopentylcarbonyl)piperidin-4-yl]-1H-indol-5-yl}benzamide] | 624 nM
14 | Cn1cc(C2CCN(C(=O)C3CCCC3)CC2)c2cc(NS(=O)(=O)c3ccc(F)cc3)ccc21 [Example 64, N-(3-(1-(cyclopentylcarbonyl)piperidin-4-yl)-1-methyl-1H-indol-5-yl)-4-fluorobenzenesulfonamide] | 5.8 nM
15 | Cc1ncc(C(=O)Nc2ccc3[nH]cc(C4CCN(C(=O)C5CCCC5)CC4)c3c2)cc1C#N [Example 53, 5-cyano-N-{3-[1-(cyclopentylcarbonyl)piperidin-4-yl]-1H-indol-5-yl}-6-methylnicotinamide] | 124 nM
16 | Cn1cc(C2CCN(C(=O)C3CCOCC3)CC2)c2cc(NC(=O)c3cc(C#N)ccn3)ccc21 [Example 19, 4-cyano-N-{1-methyl-3-[1-(tetrahydro-2H-pyran-4-ylcarbonyl)piperidin-4-yl]-1H-indol-5-yl}pyridine-2-carboxamide] | 40.6 nM
17 | Cn1cc(C2CCN(C(=O)c3cccc(O)n3)CC2)c2cc(NC(=O)c3cc(C#N)ccn3)ccc21 [Example 21, 4-cyano-N-(3-{1-[(6-hydroxypyridin-2-yl)carbonyl]piperidin-4-yl}-1-methyl-1H-indol-5-yl)pyridine-2-carboxamide] | 1440 nM

Row | SMILES | IC50
18 | Cn1cc(C2CCN(C(=O)C3CCCC3)CC2)c2cc(NS(=O)(=O)c3cccc(F)c3)ccc21 [Example 66, N-{3-[1-(cyclopentylcarbonyl)piperidin-4-yl]-1-methyl-1H-indol-5-yl}-3-fluorobenzenesulfonamide] | 7 nM
19 | CN(CCC#N)C(=O)Nc1ccc2c(c1)c(C1CCN(C(=O)C3CCCC3)CC1)cn2C [Example 59, 1-(2-cyanoethyl)-3-{3-[1-(cyclopentylcarbonyl)piperidin-4-yl]-1-methyl-1H-indol-5-yl}-1-methylurea] | 330 nM
20 | Cn1cc(C2CCN(C(=O)C3CCCC3)CC2)c2cc(NC(=O)N3CC[C@H](C#N)C3)ccc21 [Example 60, (3S)-3-cyano-N-{3-[1-(cyclopentylcarbonyl)piperidin-4-yl]-1-methyl-1H-indol-5-yl}pyrrolidine-1-carboxamide] | 216 nM
21 | O=C(Nc1ccc2[nH]cc(C3CCN(C(=O)C4CCCC4)CC3)c2c1)c1ccccc1F [Example 38, N-{3-[1-(cyclopentylcarbonyl)piperidin-4-yl]-1H-indol-5-yl}-2-fluorobenzamide] | 910 nM
22 | O=C(Nc1ccc2[nH]cc(C3CCN(C(=O)C4CCCC4)CC3)c2c1)c1cccc2ncsc12 [Example 49, N-{3-[1-(cyclopentylcarbonyl)piperidin-4-yl]-1H-indol-5-yl}-1,3-benzothiazole-7-carboxamide] | 1380 nM
23 | COc1ccc(C#N)cc1C(=O)Nc1ccc2[nH]cc(C3CCN(C(=O)C4CCCC4)CC3)c2c1 [Example 40, 5-cyano-N-{3-[1-(cyclopentylcarbonyl)piperidin-4-yl]-1H-indol-5-yl}-2-methoxybenzamide] | 380 nM
24 | CC(C)c1cnc(N2CCC(c3cn(C)c4ccc(NC(=O)c5cccc(C#N)c5)cc34)CC2)nc1 [Example 80] | 259 nM
25 | Cn1cnc(S(=O)(=O)Nc2ccc3c(c2)c(C2CCN(C(=O)C4CCCC4)CC2)cn3C)c1 [Example 69, N-{3-[1-(cyclopentylcarbonyl)piperidin-4-yl]-1-methyl-1H-indol-5-yl}-1-methyl-1H-imidazole-4-sulfonamide] | 270 nM
26 | CC1CCN(S(=O)(=O)Nc2ccc3c(c2)c(C2CCN(C(=O)C4CCCC4)CC2)cn3C)CC1 [Example 93, N-(3-(1-(cyclopentanecarbonyl)piperidin-4-yl)-1-methyl-1H-indol-5-yl)-4-methylpiperidine-1-sulfonamide] | 4.9 nM
27 | Cc1cnc(N2CCC(c3cn(C)c4ccc(NC(=O)c5cccc(C#N)c5)cc34)CC2)nc1 [Example 81, 3-cyano-N-(1-methyl-3-(1-(5-methylpyrimidin-2-yl)piperidin-4-yl)-1H-indol-5-yl)benzamide] | 335 nM
28 | Cn1cc(C2CCN(C(=O)C3CCCC3)CC2)c2cc(NS(=O)(=O)c3cnc(N)nc3)ccc21 [Example 65, 2-amino-N-{3-[1-(cyclopentylcarbonyl)piperidin-4-yl]-1-methyl-1H-indol-5-yl}pyrimidine-5-sulfonamide] | 37.3 nM
29 | O=C(Nc1ccc2[nH]cc(C3CCN(C(=O)C4CCCC4)CC3)c2c1)c1ccc2[nH]cnc2c1 [Example 51, N-{3-[1-(cyclopentylcarbonyl)piperidin-4-yl]-1H-indol-5-yl}-1H-benzimidazole-5-carboxamide] | 871 nM
30 | Cn1cc(C2CCN(C(=O)[C@H]3CC[C@@H](O)CC3)CC2)c2cc(NC(=O)c3cc(C#N)ccn3)ccc21 [Example 29, 4-cyano-N-(3-{1-[(cis-4-hydroxycyclohexyl)carbonyl]piperidin-4-yl}-1-methyl-1H-indol-5-yl)pyridine-2-carboxamide] | 56.2 nM
31 | CC[C@H](C)[C@H](O)C(=O)N1CCC(c2cn(C)c3ccc(NC(=O)c4cccc(C#N)c4)cc23)CC1 [Example 3, 3-cyano-N-(3-(1-((2S,3S)-2-hydroxy-3-methylpentanoyl)piperidin-4-yl)-1-methyl-1H-indol-5-yl)benzamide] | 387 nM
32 | Cn1cc(C2CCN(C(=O)c3ccncn3)CC2)c2cc(NC(=O)c3cc(C#N)ccn3)ccc21 [Example 20, 4-cyano-N-{1-methyl-3-[1-(pyrimidin-4-ylcarbonyl)piperidin-4-yl]-1H-indol-5-yl}pyridine-2-carboxamide] | 246 nM
33 | N#Cc1cccc(C(=O)Nc2ccc3[nH]cc(C4CCN(C(=O)NC5CCCC5)CC4)c3c2)c1 [Example 85, 4-(5-(3-cyanobenzamido)-1H-indol-3-yl)-N-cyclopentylpiperidine-1-carboxamide] | 859 nM
